According to US9434734B2, “Substituted pyrazoloquinazolinones and pyrroloquinazolinones as allosteric modulators of group II metabotropic glutamate receptors” (Domain Therapeutics, priority 2012, dated 2016):

What was measured:
[1] = target: T1, human mGluR2 (hmGluR2) transiently over-expressed in HEK-293 cells (Homo sapiens, UniProt Q14416); experiment: Human mGluR2 negative allosteric modulator evaluation using Ca++ functional assay (agonist and NAM activity); type: cell-based; conditions: hmGluR2 in HEK-293 cells, EC80 glutamate, Fluo4AM calcium readout; read-out: mGluR2 negative allosteric modulator activity IC50
T1 construct: expressed in transfected cells; host or cells: HEK-293 cells, transient co-transfection by electroporation
T1 sequence (Q14416 19-872): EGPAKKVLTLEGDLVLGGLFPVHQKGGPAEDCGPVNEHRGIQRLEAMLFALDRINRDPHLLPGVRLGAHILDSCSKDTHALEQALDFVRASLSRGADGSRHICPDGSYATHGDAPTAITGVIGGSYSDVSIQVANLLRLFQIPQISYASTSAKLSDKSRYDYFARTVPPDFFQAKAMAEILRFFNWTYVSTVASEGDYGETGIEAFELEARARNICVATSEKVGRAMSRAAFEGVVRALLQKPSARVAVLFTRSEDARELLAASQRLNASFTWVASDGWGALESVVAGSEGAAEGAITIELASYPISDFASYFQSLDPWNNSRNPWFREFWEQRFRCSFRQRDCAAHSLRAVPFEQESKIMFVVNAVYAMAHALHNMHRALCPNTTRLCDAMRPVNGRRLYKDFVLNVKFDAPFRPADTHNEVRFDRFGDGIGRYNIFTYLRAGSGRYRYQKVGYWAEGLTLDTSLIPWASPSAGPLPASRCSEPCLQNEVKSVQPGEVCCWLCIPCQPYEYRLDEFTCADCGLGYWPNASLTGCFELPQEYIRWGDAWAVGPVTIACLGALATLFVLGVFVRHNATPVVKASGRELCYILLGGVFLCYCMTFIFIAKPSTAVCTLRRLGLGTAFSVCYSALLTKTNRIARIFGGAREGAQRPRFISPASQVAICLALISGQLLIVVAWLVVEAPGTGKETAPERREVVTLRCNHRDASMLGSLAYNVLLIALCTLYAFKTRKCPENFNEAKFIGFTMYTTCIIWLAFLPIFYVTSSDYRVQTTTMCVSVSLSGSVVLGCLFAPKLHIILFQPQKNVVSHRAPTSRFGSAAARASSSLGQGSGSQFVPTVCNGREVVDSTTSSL
Procedure: Human mGluR2 Negative Allosteric Modulator Evaluation Using Ca^++ Functional Assay
Compounds of the present invention were tested successively for their agonist and negative allosteric modulator activities on human mGluR2 (hmGluR2) transiently over-expressed in HEK-293 cells. They exert agonist activity if they are able to activate mGluR2 by themselves, i.e., in absence of the endogenous agonist glutamate; and they exert negative allosteric modulator activity if they decrease the action of the endogenous agonist glutamate.
HEK-293 cells were maintained in Modified Eagle's Medium supplemented with 10% Foetal Calf Serum, 1% Penicillin/Streptomycin and 1% nonessential amino acids at 37° C./5% CO2.
Cells were plated after transfection onto polyornithine coated, clear bottom, black-walled, 96-well plates and cultured for 24 h.
Receptor activity was detected by changes in intracellular calcium measured using the fluorescent Ca^2+ sensitive dye, Fluo4AM (Molecular Probes).
The day of the assay, medium was aspirated and replaced during 3 hours by medium without serum supplemented with 1% Glutamax, 1% Penicillin/Streptomycin and 1% nonessential amino acids. Then, cells were washed with freshly prepared buffer B (HBSS 1× (PAA), Hepes 20 mM, MgSO4-7H2O 1 mM, Na2CO3 3.3 mM, CaCl2-2H2O 1.3 mM, 0.5% BSA, Probenecid 2.5 mM) and loaded at 37° C./5% CO2 for 1.5 hours with buffer B containing 1 μM Fluo4AM, 0.1 mg/mL Pluronic Acid, 7 μg/mL Glutamate Pyruvate Transaminase and 2 mM sodium pyruvate. Afterwards cells were washed twice with buffer B and 50 μL of this buffer were added to each well.
Agonist and negative allosteric modulator activities of compounds were consecutively evaluated on the same cells plate. […] Then, the cells were stimulated by an EC80 glutamate concentration and fluorescence was recorded for additional 60 s. EC80 glutamate concentration is the concentration giving 80% of the maximal glutamate response. Agonist and/or negative allosteric modulator activity(ies) were evaluated in comparison to basal signal or signal evoked by EC80 glutamate alone, respectively.
For potency determination, a dose-response test was performed using 8 concentrations of each compound of the invention. Dose-response curves were fitted using the sigmoidal dose-response (variable slope) analysis in GraphPad Prism program (Graph Pad Inc) and EC50 of agonist/IC50 of negative allosteric modulator activity was calculated. Dose-response experiments were all performed in duplicate, two times independently.

Compound	IC50 [1] [µM]	melting point [°C]
Cl.Cn1c(=O)c2ccc(-c3ccc(N)nc3)cc2n2nc(C3CCS(=O)(=O)CC3)cc12 [Example 84, 8-(6-Amino-pyridin-3-yl)-2-(1,1-dioxo-tetrahydro-2H-thiopyran-4-yl)-4-methyl-4H-pyrazolo[1,5-a]quinazolin-5-one]	< 1	> 250
Cn1c(=O)c2ccc(-c3cccc(S(=O)(=O)NC(C)(C)CO)c3)cc2n2nc(C3CCOCC3)cc12 [Example 101, N-(2-Hydroxy-1,1-dimethyl-ethyl)-3-[4-methyl-5-oxo-2-(tetrahydro-pyran-4-yl)-4,5-dihydro-pyrazolo[1,5-a]quinazolin-8-yl]-benzenesulfonamide]	< 1	223 to 226
CCn1c(=O)c2ccc(-c3ccc(N)nc3)cc2n2nc(-c3ccccc3)cc12.Cl [Example 43, 8-(6-Amino-pyridin-3-yl)-4-ethyl-2-phenyl-4H-pyrazolo[1,5-a]quinazolin-5-one]	< 1	207 to 208
Cc1cc(-c2ccc3c(=O)n(C)c4cc(-c5ccccc5)nn4c3c2)cc(C)n1.Cl [Example 37, 8-(2,6-Dimethyl-pyridin-4-yl)-4-methyl-2-phenyl-4H-pyrazolo[1,5-a]quinazolin-5-one]	< 1	> 250
Cc1nc(N)cnc1-c1ccc2c(=O)n(C)c3cc(-c4ccccc4)nn3c2c1.Cl [Example 32, 8-(5-Amino-3-methyl-pyrazin-2-yl)-4-methyl-2-phenyl-4H-pyrazolo[1,5-a]quinazolin-5-one]	< 1	188 to 189
Cl.[2H]C([2H])([2H])n1c(=O)c2ccc(-c3ccc(N)nc3)cc2n2nc(CCOC)cc12 [Example 55, 8-(6-Amino-pyridin-3-yl)-2-(2-methoxy-ethyl)-4-methyl(D3)-4H-pyrazolo[1,5-a]quinazolin-5-one]	< 1	–
CCCn1c(=O)c2ccc(-c3cccc(S(=O)(=O)N(C)C)c3)cc2n2nc(-c3ccccc3)cc12 [Example 40, N,N-Dimethyl-3-(4-propyl-5-oxo-2-phenyl-4,5-dihydro-pyrazolo[1,5-a]quinazolin-8-yl)-benzenesulfonamide]	< 1	112 to 116
Cl.[2H]C([2H])([2H])n1c(=O)c2ccc(-c3ccc(N)nc3)cc2n2nc(C3CCCC3)cc12 [Example 67, 8-(6-Amino-pyridin-3-yl)-2-cyclopentyl-4-methyl(D3)-4H-pyrazolo[1,5-a]quinazolin-5-one]	< 1	–
Cl.[2H]C([2H])([2H])n1c(=O)c2ccc(-c3cc(C)nc(C)c3)cc2n2nc(C3CCCC3)cc12 [Example 68, 2-Cyclopentyl-8-(2,6-dimethyl-pyridin-4-yl)-4-methyl(D3)-4H-pyrazolo[1,5-a]quinazolin-5-one]	< 1	–
Cc1cc(-c2ccc3c(=O)n(C)c4cc(C5CCOCC5)nn4c3c2)ccn1 [Example 93, 4-Methyl-8-(2-methyl-pyridin-4-yl)-2-(tetrahydro-pyran-4-yl)-4H-pyrazolo[1,5-a]quinazolin-5-one]	< 1	–
Cn1c(=O)c2ccc(-c3cccc(S(N)(=O)=O)c3)cc2n2nc(C3CCOCC3)cc12 [Example 100, 3-[4-Methyl-5-oxo-2-(tetrahydro-pyran-4-yl)-4,5-dihydro-pyrazolo[1,5-a]quinazolin-8-yl]-benzenesulfonamide]	< 1	–
Cc1ccc(-c2ccc3c(=O)n(C)c4cc(C5CCOCC5)nn4c3c2)cn1 [Example 95, 4-Methyl-8-(6-methyl-pyridin-3-yl)-2-(tetrahydro-pyran-4-yl)-4H-pyrazolo[1,5-a]quinazolin-5-one]	< 1	–
Cn1c(=O)c2ccc(-c3ccc(N)nc3)cc2n2nc(C(C)(C)C)cc12 [Example 52, 8-(6-Amino-pyridin-3-yl)-2-tert-butyl-4-methyl-4H-pyrazolo[1,5-a]quinazolin-5-one]	< 1	–
Cn1c(=O)c2ccc(-c3ccc(N)nc3)cc2n2nc(C3CCCCCC3)cc12 [Example 76, 8-(6-Amino-pyridin-3-yl)-2-cycloheptyl-4-methyl-4H-pyrazolo[1,5-a]quinazolin-5-one]	< 1	–
CCn1c(=O)c2ccc(-c3cc(C)nc(C)c3)cc2n2nc(C3CCCCCC3)cc12 [Example 78, 2-Cycloheptyl-8-(2,6-dimethyl-pyridin-4-yl)-4-ethyl-4H-pyrazolo[1,5-a]quinazolin-5-one]	< 1	–

The remaining lines, values ahead:

IC50 [1] [µM]	melting point [°C]	Compound
< 1	> 250	Cl.Cn1c(=O)c2ccc(-c3ccc(N)nc3)cc2n2cc(-c3ccccc3)cc12 [Example 110, 8-(6-Amino-pyridin-3-yl)-4-methyl-2-phenyl-4H-pyrrolo[1,2-a]quinazolin-5-one]
< 1	> 250	Cc1ncccc1-c1ccc2c(=O)n(C)c3cc(-c4ccnc(C(F)(F)F)c4)nn3c2c1.Cl [Example 135, 4-Methyl-8-(2-methyl-pyridin-3-yl)-2-(2-trifluoromethyl-pyridin-4-yl)-4H-pyrazolo[1,5-a]quinazolin-5-one]
< 1	> 250	Cc1cc(-c2cc3n(C)c(=O)c4ccc(-c5c(C)n[nH]c5C)cc4n3n2)cc(C)n1.Cl [Example 146, 8-(3,5-Dimethyl-1H-pyrazol-4-yl)-2-(2,6-dimethyl-pyridin-4-yl)-4-methyl-4H-pyrazolo[1,5-a]quinazolin-5-one]
< 1	186 to 194	Cc1cc(-c2ccc3c(=O)n(C)c4cc(C5CCCCO5)nn4c3c2)cc(C)n1.Cl (stereo not drawn) [Example 109, 8-(2,6-Dimethyl-pyridin-4-yl)-4-methyl-2-(tetrahydro-pyran-2-yl)-4H-pyrazolo[1,5-a]quinazolin-5-one]
< 1	–	Cc1cc(-c2cc3n(C)c(=O)c4ccc(-c5cccnc5C)cc4n3n2)cc(C)n1 [Example 113, 2-(2,6-Dimethyl-pyridin-4-yl)-4-methyl-8-(2-methyl-pyridin-3-yl)-4H-pyrazolo[1,5-a]quinazolin-5-one]
< 1	–	Cc1cc(-c2cc3n(C)c(=O)c4ccc(-c5cccnc5C)cc4n3n2)ccn1 [Example 132, 2-(2-methyl-pyridin-4-yl)-4-methyl-8-(2-methyl-pyridin-3-yl)-4H-pyrazolo[1,5-a]quinazolin-5-one]
< 1	–	Cc1cc(-c2cc3n(C)c(=O)c4ccc(-c5cc(C)nc(C)c5)cc4n3n2)ccn1 [Example 133, 8-(2,6-Dimethyl-pyridin-4-yl)-4-methyl-2-(2-methyl-pyridin-4-yl)-4H-pyrazolo[1,5-a]quinazolin-5-one]
< 1	–	Cc1cc(-c2ccc3c(=O)n(C)c4cc(C5CCCO5)nn4c3c2)cc(C)n1 (stereo not drawn) [Example 107, 8-(2,6-Dimethyl-pyridin-4-yl)-4-methyl-2-(tetrahydro-furan-2-yl)-4H-pyrazolo[1,5-a]quinazolin-5-one]
< 1	–	Cc1cncc(-c2ccc3c(=O)n(C)c4cc(-c5cc(C)nc(C)c5)nn4c3c2)c1 [Example 118, 2-(2,6-Dimethyl-pyridin-4-yl)-4-methyl-8-(5-methyl-pyridin-3-yl)-4H-pyrazolo[1,5-a]quinazolin-5-one]
< 1	–	Cc1cc(-c2ccc3c(=O)n(C)c4cc(-c5cc(C)nc(C)c5)nn4c3c2)cc(C)n1 [Example 114, 2,8-Bis-(2,6-dimethyl-pyridin-4-yl)-4-methyl-4H-pyrazolo[1,5-a]quinazolin-5-one]
< 1	–	Cc1ccc(-c2ccc3c(=O)n(C)c4cc(-c5cc(C)nc(C)c5)nn4c3c2)cn1 [Example 117, 2-(2,6-Dimethyl-pyridin-4-yl)-4-methyl-8-(6-methyl-pyridin-3-yl)-4H-pyrazolo[1,5-a]quinazolin-5-one]
< 1	–	Cc1cc(-c2cc3n(C)c(=O)c4ccc(-c5ccc(N)nc5)cc4n3n2)cc(C)n1 [Example 112, 8-(6-Amino-pyridin-3-yl)-2-(2,6-dimethyl-pyridin-4-yl)-4-methyl-4H-pyrazolo[1,5-a]quinazolin-5-one]
< 1	–	Cc1cc(-c2cc3n(C)c(=O)c4ccc(-c5cccnc5)cc4n3n2)cc(C)n1 [Example 116, 2-(2,6-Dimethyl-pyridin-4-yl)-4-methyl-8-pyridin-3-yl-4H-pyrazolo[1,5-a]quinazolin-5-one]
< 1	–	Cc1cc(-c2cc3n(C)c(=O)c4ccc(-c5cnccc5C)cc4n3n2)cc(C)n1 [Example 119, 2-(2,6-Dimethyl-pyridin-4-yl)-4-methyl-8-(4-methyl-pyridin-3-yl)-4H-pyrazolo[1,5-a]quinazolin-5-one]
